Experiments:
[1] = cited from earlier work; for CMC: critical micelle concentration; for HLB: hydrophilic-lipophilic balance
[2] = Tensile strength of gamma irradiated cartridges, initially and after storage at 37° C.; format: physicochemical; settings: initially after irradiation and after 3 and 8 months storage at 37° C.
Procedure: Approximately 15-20 cartridges of each formulation were prepared and gamma irradiated at 10-11 kGy. The tensile strength of five cartridges from each formulation was measured initially. The remaining cartridges were stored at 37° C. and tested for tensile strength again at 3 and 8 months.

Row | Compound | CMC [1] [mM] | HLB [1] | tensile strength of cartridges, in words [2]
1 | Sucrose monolaurate | 0.2 | ~8 | 
2 | CCCCCCCC/C=C\CCCCCCCC(=O)OCCOCC(OCCO)C1OCC(OCCO)C1OCCO (stereo not shown) [Tween 80] | 0.012 | 15 | 
3 | O=C1O[C@H]([C@@H](O)CO)C(O)=C1O [Ascorbic acid, ascorbic acid] |  |  | seems to be effective as well
4 | Triton X-100 | 0.2 to 0.9 | 13.5 | 

Reference: patent US9120249B2, “Implant device release agents and methods of using same” (ENDO PHARMACEUTICALS SOLUTIONS INC., priority 2007, dated 2015)
